Results on seven compounds are retold here after US11382873B1, “Oral administration of ketamine” (Vitalis Analgesics LLC, priority 2021, dated 2022).

Structures are written as SMILES. Where two headings read alike, the source gives them in different places.

For series [1], the system named is adult emergency department (ED) patients with acute musculoskeletal pain. The series is described as follows: Reduction of acute musculoskeletal pain (NRS) in adult ED patients, trial of Example 1/5. As to conditions: NRS 0-10, 60 minutes post medication; doses of Table 1 (dual route ketamine 0.5 mg/kg + aspirin 325 mg; IV ketamine 0.3 mg/kg; IV morphine 0.1 mg/kg; MSIR 15 mg; Percocet 10 mg); comparators from similar trials, same center and protocol; FIG. 1.

For series [2] the following is noted: cited from earlier work.
For series [3] the following is noted: cited from earlier work. The source holds these as a separate data set.

For `CN1CC[C@]23c4c5ccc(O)c4O[C@H]2[C@@H](O)C=C[C@H]3[C@H]1C5` [IV morphine, Morphine], the “Reduction of acute musculoskeletal pain” value in series [1] is 5.1 points.

`CNC1(c2ccccc2Cl)CCCCC1=O` (stereo not drawn) [intranasal (nebulized) ketamine, ketamine]: in series [1], the “Reduction of acute musculoskeletal pain” value is “about 4 points”.

As for `CNC1(c2ccccc2Cl)CCCCC1=O` (stereo not drawn) [ketamine], the Bioavailability entry is on record as “about 100%” in series [2] (IV), “about 93%” in series [2] (intramuscular injection) and 18-20% in series [2] (oral route). Besides, in series [2] (in vivo), the Elimination half-life was 2 to 3 h. Further, the “Delay of serum peak concentration, GI absorption versus direct (oral mucosal) absorption” value in series [2] (ketamine given concurrently through the GI, patent's own reasoning, no PK data shown) is 15 to 20 min. Also, the “Time at which maximal concentrations are reached” value in series [2] (orally) is 30 min.

As for `NC1(c2ccccc2Cl)CCCCC1=O` (stereo not drawn) [norketamine], in series [2] (following oral administration of ketamine), the “Plasma levels of the metabolite relative to ketamine” value is “three times higher”.

For `CC(C)Cc1ccc(C(C)C(=O)O)cc1` (stereo not drawn) [oral ibuprofen, Ibuprofen], in series [1], the “Reduction of acute musculoskeletal pain” value is recorded as 2 points.

Regarding `CN1CC[C@]23c4c5ccc(O)c4O[C@H]2[C@@H](O)C=C[C@H]3[C@H]1C5.O=S(=O)(O)O` [oral morphine, Morphine Sulfate], the “Reduction of acute musculoskeletal pain” value in series [1] was “about 4 points”.

Take `N[C@@H]1c2cccnc2[C@H](OC(=O)N2CCC(n3c(=O)[nH]c4ncccc43)CC2)CC[C@H]1c1cccc(F)c1F` [rimegepant, Rimegepant]: the Absolute oral bioavailability entry in series [3] (in vivo, po) is reported as “approximately 64%”. For the same compound, in series [3] (in vivo), the “Eliminated in unchanged form” value is reported as ~77 % of the dose and the “Major metabolites (i.e., >10%) detected in plasma” value is “no major metabolites”. In series [3] (oral administration of NURTEC Orally Disintegrating Tablet), the “Time of maximum concentration” value was 1.5 h.
